# Values joined by “and” are separate entries in the source; they are usually repeats but may differ in a detail not shown here. Equal values may be shown once. Read-outs that look alike come from different tables or passages of the source.
# Tests used:
# [1] = isothermal titration calorimetry, binding to hydroxyapatite; conditions: ITC
# Experimental: ITC experiments in the presence of ligand (Hdpp or XT) were carried out in either piperazine (100 mM) pH 5 or HEPES (100 mM) pH 7.4. Titrations were performed by injecting consecutive 10 μL aliquots of ligand (2.5–80 mM) or metal ion/ligand solution (2.5/10 mM for Hdpp and 81/90 mM for XT) into the ITC cell (volume = 1.4 mL) containing hydroxyapatite (0.1–1.5 mM) suspension. Hydroxylapatite suspensions were prepared by adding the required amount of hydroxyapatite to the appropriately buffered solution followed by sonication for 5 minutes. The ITC cell was stirred continuously during the titration. Control experiments (heats of dilution) were performed by titration of ligand or metal ion/ligand solution into buffer containing no hydroxyapatite. Each ITC experiment was performed in triplicate (at least). The error associated with diffusion from the syringe during baseline equilibration, the first injection was only 5 μL, and the associated small heat was not included in the data analysis.
# [2] = plasma clearance and pharmacokinetics after single intravenous dose; type: in vivo, SD rats
# Experimental: (§1) Lanthanide concentration for both in vivo and in vitro studies were determined by ICP-MS analysis by the method reported previously.[30] In brief, samples were dried (vacuum centrifugation) and dissolved in conc. nitric acid (Optima) and slowly heated to 105 °C over 1 h and maintained at 105 °C for 24 h. Hydrogen peroxide (approximately 2 mL) was added and samples heated at 140 °C for 24 h. Samples were evaporated to dryness at 150 °C before redissolving in 3 mL of 10% nitric acid (with 10 ppm Rh) prior to analysis by ICP-MS.
# (§2) Solutions of La(dpp)3 were prepared in 10% DMSO and the stability of the complex over time (7 days) monitored by spectrophotometric methods. The solution of La(dpp)3 was administered to the animals through cannulae implanted in their jugular veins (n = 6). The animals received a dose of 1 mg kg^–1 at time 0 h and blood samples (0.25 mL were withdrawn at pre-dose, 5, 10, 15, 30 min and 1, 2, 3, 4, 6, 10, 24, 48, 72, 96 and 144 h post-dose). The animals were sacrificed following the last time point and the spleen, liver, kidney, lungs, heart and brain were collected. Lanthanide concentrations were determined by ICP-MS analysis following acid digestion of the samples. The calibration curves were linear in the range of 0.1–100 ng mL^–1 and 1–50 ng mL^–1 in the organs and plasma; respectively. The plasma pharmacokinetic parameters were derived by non-compartmental analysis of plasma concentration-time profiles using Phoenix software (Ver. 1.3).
# [3] = tissue distribution of lanthanum after single intravenous dose (ICP-MS); type: in vivo, SD rats; conditions: single IV dose 1 mg kg^–1, last sampling point 144 h
# Experimental: as §1, §2
# [4] = tissue and plasma distribution of lanthanum after multiple intravenous doses (ICP-MS); type: in vivo, SD rats; conditions: for plasma levels after 5 days of treatment / La^3+ concentration in brain / La^3+ concentration in heart / La^3+ concentration in kidney / La^3+ concentration in spleen: IV 1 mg kg^–1 per day for 5 days; for plasma levels after 5 days of treatment: mean ± SD; for La^3+ concentration in brain / La^3+ concentration in heart / La^3+ concentration in kidney / La^3+ concentration in spleen: n = 6, mean ± SD; for plasma concentration, t=end, mean / plasma concentration, t=end, single animals: IV 1mg/kg/day, end of trial; for plasma concentration, t=end, mean: n=6, mean; for plasma concentration, t=end, single animals: value of each animal, 1 mg/kg/day
# Experimental: as §1
# (§3) Solutions of La(dpp)3 and La(XT) (1 mg mL^–1) were prepared in 10% DMSO and stored at 4 °C. Animals were administered with a dose of 1 mg kg^–1 once daily for 5 consecutive days by intravenous injection via jugular vein port. The animals were sacrificed on the day of the 5th dose and the spleen liver, kidney lungs, heart, brain and bones were collected. Blood samples (0.5 mL) were withdrawn at pre-dose and post-dose. The blood was centrifuged for 10 min at […] at room temperature to obtain the plasma. For organ homogenization, 1 g organ was added to 2 mL normal saline. Bones were cleaned manually of all soft flesh and sectioned into knee, middle, and hip parts using a ceramic blade, and lyophilized prior to normal acid digestion.
# [5] = hydroxyapatite binding study (batch, La^3+ depletion in supernatant by ICP-MS); conditions: pH 7.4, 37 °C, excess HAP
# Experimental: as §1
# All time points were run in triplicate. Samples containing 10 mg of hydroxyapatite (Sigma-Aldrich) were initially incubated and agitated (37 °C, 220 rpm) with 0.9 mL HEPES buffer (100 mM, pH 7.4) in 1.5 mL Eppendorfs for 24 hours. Stock solutions (1.0 mM) of La(dpp)3 and La(XT) were prepared from the premade complexes dissolved in HEPES buffer. At the outset of the experiment, 100 μL of either stock solution was added to a sample and incubated and agitated for a set time. When the time point was reached, the supernatant was carefully removed, taking care not to disturb the residual HAP, and filtered through a 22 micron frit. […] Samples containing La(dpp)3 were also analysed by UV-Vis spectroscopy to determine Hdpp concentration. […]
# MG-63 cells = tested on: MG-63 cells; parameters: method as in PMID 17992287, PMID 23299719, PMID 11442371; conditions: earlier work of the authors, read-out: EC50 (cellular toxicity); cited from earlier work
# [6] = parameters: method as in PMID 23299719, PMID 11442371; conditions: cited from earlier work; for pM (= –log[La^3+]): calculated at pH 7.4, 100 μM ligand, 10 μM metal
# [7] = bone (femur) distribution of lanthanum after multiple doses; type: in vivo, SD rats; conditions: 1 mg kg^–1 per day for 5 days, ANOVA p 0.006, 0.017, 0.004 (hip, mid, knee)
# Experimental: as §1, §3
# [8] = parameters: method as in Cawthray et al. 37; conditions: ITC, 37 °C, ref Cawthray et al. 37; cited from earlier work
# [9] = La^3+ in plasma, La(dpp)3 1 mg kg^–1 IV, SD rats, non-compartmental, n = 6, mean
# [10] = thermodynamic stability of the complex
compound,measurement,setting,value
"O=C(O)CN(CC(=O)O)CP(=O)(O)CN(CC(=O)O)CC(=O)O [H5XT, bis[[bis(carboxymethyl)amino]-methyl]phosphinate]",apparent K a (pH 5),"[1]; 37 °C, pH 5 (100 mM piperazine), one-site bimolecular–bimolecular model",1.9 (±0.4) × 10^2 M^–1
same,K (one-site fit),"[1]; 37 °C, pH 7.4 (100mM HEPES), 30.4mM H5XT into 1.1 mM HAP, Fig. S2",6.61E3±1.33E3
Cc1c([O-])c(=O)ccn1C.Cc1c([O-])c(=O)ccn1C.Cc1c([O-])c(=O)ccn1C.[La+3] [La(dpp)3],lanthanum in plasma beyond 10 h,"[2]; 1 mg kg^–1 IV, beyond 10 h",not detected
same,time until plasma lanthanum is back to pre-dose concentrations,"[2]; 1 mg kg^–1 IV, pre-dose ∼15 ng mL^–1",≤ 24 h
same,C 0,[2]; [9],4973 ± 557 ng mL^–1 and 4973.09 ng mL^–1
same,Cl,[2]; [9],77 mL h^–1 kg^–1 and 77.24 mL h^–1 kg^–1
same,K el,[2]; [9],0.20 h^–1
same,MRT,[2]; [9],3.46 h
same,T 1/2,[2]; [9],3.61 h
same,V ss,[2]; [9],265 mL kg^–1 and 265.41 mL kg^–1
same,plasma lanthanum level as % of C0,[2]; within 6 hours after 1 mg kg^–1 IV,approximately 10%
same,La^3+ concentration in brain,[3],15 ± 12 ng g^–1
same,La^3+ concentration in heart,[3],20 ± 7 ng g^–1
same,La^3+ concentration in kidney,[3],108 ± 95 ng g^–1
same,La^3+ concentration in liver,[3],741 ± 109 ng g^–1
same,La^3+ concentration in spleen,[3],1164 ± 350 ng g^–1
same,plasma levels after 5 days of treatment,[4],5517 ± 1188 ng g^–1
same,La^3+ concentration in brain,[4],101 ± 60 ng g^–1
same,La^3+ concentration in heart,[4],635 ± 178 ng g^–1
same,La^3+ concentration in kidney,[4],992 ± 321 ng g^–1
same,La^3+ concentration in spleen,[4],7817 ± 3211 ng g^–1
same,"plasma concentration, t=end, mean",[4],5517.0 ng/g weight
same,"plasma concentration, t=end, single animals",[4],4971.8 ng/g weight and 4668.4 ng/g weight and 4232.8 ng/g weight and 7201.5 ng/g weight and 6740.2 ng/g weight and 5287.1 ng/g weight
same,La^3+ bound to HAP,[5]; first 15 minutes,greater than 80%
same,EC50,MG-63 cells,> 100 µM
same,pM (= –log[La^3+]),[6],5.8
same,log βML3,[6]; [10],17.44
"Cc1c(O)c(=O)ccn1C [Hdpp, 3-hydroxy-1,2-dimethylpyridin-4(1H)-one]",interaction of ligand alone with HAP,"[1]; pH 5, absence of La^3+",do not see any evidence of interaction
same,binding of ligand alone to HAP,"[1]; pH 7.4, absence of La^3+",no binding is observed
O=C([O-])CN(CC(=O)[O-])CP(=O)(O)CN(CC(=O)[O-])CC(=O)[O-].[La+3] [La(XT)],plasma levels after 5 days of treatment,[4],5999 ± 302 ng g^–1
same,La^3+ concentration in brain,[4],112 ± 84 ng g^–1
same,La^3+ concentration in heart,[4],768 ± 115 ng g^–1
same,La^3+ concentration in kidney,[4],1320 ± 157 ng g^–1
same,La^3+ concentration in spleen,[4],3854 ± 827 ng g^–1
same,"plasma concentration, t=end, mean",[4],5998.7 ng/g weight
same,"plasma concentration, t=end, single animals",[4],5843.4 ng/g weight and 6432.4 ng/g weight and 5776.8 ng/g weight and 6337.3 ng/g weight and 5782.3 ng/g weight and 5819.9 ng/g weight
same,bone distribution of lanthanum compared to La(dpp)3,[7],slightly greater
same,La^3+ bound to HAP,[5]; after 4 h,less than 20%
same,pM (= –log[La^3+]),[6],12.0
same,log βML,[6]; [10],13.0(3)
[La+3] [Free La^3+],apparent K a (pH 5),[8],2.4 (±0.2) × 10^6 M^–1
